{"source": "patent US20160183526A1", "about": "“FUNGICIDAL COMPOSITIONS” (Dow AgroSciences LLC, priority 2014, published 2016)", "key": {"[1]": {"details": "estimated from a survey of the literature; miscible means totally soluble in water in all amounts; cited from earlier work"}, "[2]": {"assay": "Solubility of a mixture of Compound A and prothioconazole in benzyl acetate/AMD810 blends at 10° C. (HPLC)", "type": "physicochemical", "details": "both actives saturated", "protocol": "A study of the Compound A and prothioconazole solubility in blends of benzyl acetate/AMD810 was conducted. To each solvent blend both actives were added until each was saturated and the resulting mixtures were then stored at 10° C. until equilibrium was obtained. Aliquots of the supernatant layer were taken from each sample, filtered (0.45 μm mesh) and analyzed by HPLC to determine the solution concentration of each active in the blends."}, "[3]": {"assay": "Solubility of Compound A and prothioconazole in benzyl acetate/AMD810/cyclohexanone blends at 10° C.", "type": "physicochemical", "details": "one week", "protocol": "A total of 20 g of each solvent blend was prepared per sample. For example, one of the blends (Blend 4) was prepared by combining cyclohexanone 0.2 (4 g), benzyl acetate 0.2 (4 g) and AMD810 0.6 (12 g). To Blend 4 were added amounts of Compound A and prothioconazole technical active ingredients to achieve saturation concentrations of each. The samples were then stored at 10° C. for one week and then were analysed for soluble active ingredient content."}, "[4]": {"assay": "Approximate relative solubility of active ingredients in organic solvents at ambient temperature", "type": "physicochemical"}}}
{"smiles": "CCOCCOCCO", "note": "[Diethylene glycol monoethyl ether]", "values": [{"measurement": "Solubility of Solvent in Water", "setting": "[1]", "value": "Miscible"}]}
{"smiles": "CCCCOC(=O)OCCCC", "note": "[Di-n-butyl carbonate]", "values": [{"measurement": "Solubility of Solvent in Water", "setting": "[1]", "value": 820, "unit": "µg/mL"}]}
{"smiles": "CCOCCOCCOC(C)=O", "note": "[Ethyl Diglycol Acetate]", "values": [{"measurement": "Solubility of Solvent in Water", "setting": "[1]", "value": "Miscible"}]}
{"smiles": "O=C1CCCCC1", "note": "[Cyclohexanone]", "values": [{"measurement": "Solubility of Solvent in Water", "setting": "[1]", "value": "8600 to 25000", "unit": "µg/mL"}]}
{"smiles": "CC(=O)OCc1ccccc1", "note": "[Benzyl acetate]", "values": [{"measurement": "Solubility of Solvent in Water", "setting": "[1]", "value": "1000 to 3100", "unit": "µg/mL"}]}
{"smiles": "COC(=O)CCC(C)C(=O)OC", "note": "(stereo not shown) [Pentanedioic acid, 2-methyl-1,5-dimethyl ester]", "values": [{"measurement": "Solubility of Solvent in Water", "setting": "[1]", "value": 25000, "unit": "µg/mL"}]}
{"smiles": "COC(=O)c1ccccc1O", "note": "[Methyl salicylate]", "values": [{"measurement": "Solubility of Solvent in Water", "setting": "[1]", "value": "<5000", "unit": "µg/mL"}]}
{"smiles": "OC(Cc1ccccc1Cl)(Cn1nc[nH]c1=S)C1(Cl)CC1", "note": "(stereo not shown) [Prothioconazole, prothioconazole]", "values": [{"measurement": "Prothioconazole Solubility at 10° C.", "setting": "[2]; benzyl acetate 0 wt % in blend with AMD810", "value": 31.3, "unit": "% w/w"}, {"measurement": "Prothioconazole Solubility at 10° C.", "setting": "[2]; benzyl acetate 20 wt % in blend with AMD810", "value": 32.3, "unit": "% w/w"}, {"measurement": "Prothioconazole Solubility at 10° C.", "setting": "[2]; benzyl acetate 40 wt % in blend with AMD810", "value": 33.1, "unit": "% w/w"}, {"measurement": "Prothioconazole Solubility at 10° C.", "setting": "[2]; benzyl acetate 60 wt % in blend with AMD810", "value": 32.1, "unit": "% w/w"}, {"measurement": "Prothioconazole Solubility at 10° C.", "setting": "[2]; benzyl acetate 80 wt % in blend with AMD810", "value": 26.6, "unit": "% w/w"}, {"measurement": "Prothioconazole Solubility at 10° C.", "setting": "[2]; benzyl acetate 100 wt % in blend with AMD810", "value": 16.2, "unit": "% w/w"}, {"measurement": "Prothioconazole Solubility @ 10° C.", "setting": "[3]; Blend 1: cyclohexanone 0/benzyl acetate 0/AMD810 1 (weight fraction)", "value": 34.3, "unit": "% w/w"}, {"measurement": "Prothioconazole Solubility @ 10° C.", "setting": "[3]; Blend 2: cyclohexanone 0/benzyl acetate 0.2/AMD810 0.8 (weight fraction)", "value": 32.3, "unit": "% w/w"}, {"measurement": "Prothioconazole Solubility @ 10° C.", "setting": "[3]; Blend 3: cyclohexanone 0.2/benzyl acetate 0/AMD810 0.8 (weight fraction)", "value": 33.9, "unit": "% w/w"}, {"measurement": "Prothioconazole Solubility @ 10° C.", "setting": "[3]; Blend 4: cyclohexanone 0.2/benzyl acetate 0.2/AMD810 0.6 (weight fraction)", "value": 32.9, "unit": "% w/w"}, {"measurement": "Prothioconazole Solubility @ 10° C.", "setting": "[3]; Blend 5: cyclohexanone 0/benzyl acetate 0.4/AMD810 0.6 (weight fraction)", "value": 33.1, "unit": "% w/w"}, {"measurement": "Prothioconazole Solubility @ 10° C.", "setting": "[3]; Blend 6: cyclohexanone 0.2/benzyl acetate 0.4/AMD810 0.4 (weight fraction)", "value": 32.1, "unit": "% w/w"}, {"measurement": "Prothioconazole Solubility @ 10° C.", "setting": "[3]; Blend 7: cyclohexanone 0/benzyl acetate 0.6/AMD810 0.4 (weight fraction)", "value": 32.1, "unit": "% w/w"}, {"measurement": "Prothioconazole Solubility @ 10° C.", "setting": "[3]; Blend 8: cyclohexanone 0/benzyl acetate 0.8/AMD810 0.2 (weight fraction)", "value": 26.6, "unit": "% w/w"}, {"measurement": "Prothioconazole Solubility @ 10° C.", "setting": "[3]; Blend 10: cyclohexanone 0.2/benzyl acetate 0.6/AMD810 0.2 (weight fraction)", "value": 29.9, "unit": "% w/w"}, {"measurement": "Prothioconazole Solubility @ 10° C.", "setting": "[3]; Blend 11: cyclohexanone 0/benzyl acetate 1/AMD810 0 (weight fraction)", "value": 16.2, "unit": "% w/w"}, {"measurement": "Prothioconazole Solubility @ 10° C.", "setting": "[3]; Blend 12: cyclohexanone 0.2/benzyl acetate 0.8/AMD810 0 (weight fraction)", "value": 18.4, "unit": "% w/w"}, {"measurement": "Relative Solubility of Prothioconazole", "setting": "[4]; in 2-ethylhexanol", "value": "Very Low (<10)"}, {"measurement": "Relative Solubility of Prothioconazole", "setting": "[4]; in 2-ethylhexyl benzoate", "value": "Very Low (<10)"}, {"measurement": "Relative Solubility of Prothioconazole", "setting": "[4]; in 2-ethylhexyl lactate", "value": "Medium (>20 to 30)"}, {"measurement": "Relative Solubility of Prothioconazole", "setting": "[4]; in 2-heptanone", "value": "Low (10 to 20)"}, {"measurement": "Relative Solubility of Prothioconazole", "setting": "[4]; in Alkyl naphthalene mixture", "value": "Very Low (<10)"}, {"measurement": "Relative Solubility of Prothioconazole", "setting": "[4]; in Benzyl acetate", "value": "Low (10 to 20)"}, {"measurement": "Relative Solubility of Prothioconazole", "setting": "[4]; in Benzyl alcohol", "value": "Medium (>20 to 30)"}, {"measurement": "Relative Solubility of Prothioconazole", "setting": "[4]; in Butyl benzoate", "value": "Low (10 to 20)"}, {"measurement": "Relative Solubility of Prothioconazole", "setting": "[4]; in Butyl lactate", "value": "Low (10 to 20)"}, {"measurement": "Relative Solubility of Prothioconazole", "setting": "[4]; in Butylene carbonate", "value": "Very Low (<10)"}, {"measurement": "Relative Solubility of Prothioconazole", "setting": "[4]; in Cyclohexanone", "value": "High (>30)"}, {"measurement": "Relative Solubility of Prothioconazole", "setting": "[4]; in Di-n-butyl carbonate", "value": "Very Low (<10)"}, {"measurement": "Relative Solubility of Prothioconazole", "setting": "[4]; in Diethylene glycol monoethyl ether", "value": "High (>30)"}, {"measurement": "Relative Solubility of Prothioconazole", "setting": "[4]; in Ethyl Diglycol Acetate", "value": "Very Low (<10)"}, {"measurement": "Relative Solubility of Prothioconazole", "setting": "[4]; in Isoparaffin", "value": "Very Low (<10)"}, {"measurement": "Relative Solubility of Prothioconazole", "setting": "[4]; in Isopropyl benzoate", "value": "Very Low (<10)"}, {"measurement": "Relative Solubility of Prothioconazole", "setting": "[4]; in Methyl oleate", "value": "Very Low (<10)"}, {"measurement": "Relative Solubility of Prothioconazole", "setting": "[4]; in Methyl salicylate", "value": "Very Low (<10)"}, {"measurement": "Relative Solubility of Prothioconazole", "setting": "[4]; in Methyl-5-(Dimethylamino)-2-Methyl-5-Oxopentanoate", "value": "High (>30)"}, {"measurement": "Relative Solubility of Prothioconazole", "setting": "[4]; in N,N dimethyl fatty acid amides", "value": "High (>30)"}, {"measurement": "Relative Solubility of Prothioconazole", "setting": "[4]; in N-formyl morpholine and propylene carbonate", "value": "Medium (>20 to 30)"}, {"measurement": "Relative Solubility of Prothioconazole", "setting": "[4]; in Pentanedioic acid, 2-methyl-1, 5-dimethyl ester", "value": "Low (10 to 20)"}, {"measurement": "Relative Solubility of Prothioconazole", "setting": "[4]; in Polyethylene glycol", "value": "Medium (>20 to 30)"}, {"measurement": "Relative Solubility of Prothioconazole", "setting": "[4]; in Polypropylene glycol", "value": "Low (10 to 20)"}, {"measurement": "Relative Solubility of Prothioconazole", "setting": "[4]; in Propylene carbonate", "value": "Very Low (<10)"}, {"measurement": "Relative Solubility of Prothioconazole", "setting": "[4]; in Soybean oil", "value": "Very Low (<10)"}, {"measurement": "Relative Solubility of Prothioconazole", "setting": "[4]; in Sulfolane", "value": "Low (10 to 20)"}, {"measurement": "Relative Solubility of Prothioconazole", "setting": "[4]; in Tributoxyethyl phosphate", "value": "High (>30)"}, {"measurement": "Relative Solubility of Prothioconazole", "setting": "[4]; in dimethyl esters of adipic, glutaric and succinic acids", "value": "Low (10 to 20)"}]}
{"smiles": "CC(C)OC(=O)c1ccccc1", "note": "[Isopropyl benzoate]", "values": [{"measurement": "Solubility of Solvent in Water", "setting": "[1]", "value": 640, "unit": "µg/mL"}]}
{"smiles": "COC(=O)C(C)CCC(=O)N(C)C", "note": "(stereo not shown) [Methyl-5-(Dimethylamino)-2-Methyl-5-Oxopentanoate]", "values": [{"measurement": "Solubility of Solvent in Water", "setting": "[1]", "value": 79000, "unit": "µg/mL"}]}
{"smiles": "CCCCCCCC/C=C\\CCCCCCCC(=O)OC", "note": "[Methyl oleate]", "values": [{"measurement": "Solubility of Solvent in Water", "setting": "[1]", "value": 1.1, "unit": "µg/mL"}]}
{"smiles": "CCCCOC(=O)C(C)O", "note": "(stereo not shown) [Butyl lactate]", "values": [{"measurement": "Solubility of Solvent in Water", "setting": "[1]", "value": 42000, "unit": "µg/mL"}]}
{"smiles": "CC1COC(=O)O1", "note": "(stereo not shown) [Propylene carbonate]", "values": [{"measurement": "Solubility of Solvent in Water", "setting": "[1]", "value": 17500, "unit": "µg/mL"}]}
